Reference: patent publication US20110263664A1, “Inhibitors of PIM-1 Protein Kinases, Compositions and Methods for Treating Prostate Cancer” (MUSC FOUNDATION FOR RESEARCH DEVELOPMENT, priority 2007, published 2011)
Like-named read-outs stand apart in the source and are kept apart here.

What was measured:
PIM1 [1] = biological target: T1, PIM1 (Homo sapiens, UniProt P11309); experiment: Pim-1 protein kinase assay (Procedure 1), Table 1; type: biochemical; design: purchased Upstate 14-573
Excerpt: The following in vitro procedure can be used to evaluate compounds for inhibition of Pim-1 protein kinase.

PIM2 = PIM2 (Homo sapiens, UniProt Q9P1W9); experiment: Pim-2 kinase IC50, Table 2; type: biochemical
Chain of PIM2 (Q9P1W9 whole entry): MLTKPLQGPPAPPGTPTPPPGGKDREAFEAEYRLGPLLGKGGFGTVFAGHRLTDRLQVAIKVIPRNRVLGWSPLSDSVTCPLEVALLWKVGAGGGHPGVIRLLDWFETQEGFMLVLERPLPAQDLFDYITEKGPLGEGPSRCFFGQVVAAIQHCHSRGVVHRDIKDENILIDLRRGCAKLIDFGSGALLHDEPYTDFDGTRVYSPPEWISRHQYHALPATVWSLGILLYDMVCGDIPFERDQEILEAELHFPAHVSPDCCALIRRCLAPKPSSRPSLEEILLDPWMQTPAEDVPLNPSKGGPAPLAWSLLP

[2] = system: Human prostate cancer PC3 cells; experiment: Cytotoxicity assay (MTS), PC3 cells, Table 3; type: cell-based; conditions: PC-3, 48 hours, read-out: IC50 (PC3 cell assay)
Method: Varying concentrations of the test compounds are then added to each well, and the plates were incubated for an additional 48 hours. The number of surviving cells was determined by the MTS assay (Promega). The percentage of cells killed was calculated as the percentage decrease in MTS metabolism compared with control cultures.

AMPK protein kinase = experiment: Phosphorylation of AMPK on threonine 172
Excerpt: This phosphorylation is known to activate this protein kinase and lead to the phosphorylation of TSC2 and the inhibition of TOR protein kinase (Molecular Cell 30: 214-226, 2008; Oncogene 26: 1616-1625, 2007).

[3] = system: phosphoBad in FDCP1-Pim cells; experiment: PhosphoBad time course in FDCP1-Pim cells; type: cell-based, murine; conditions: 5 μM, serum and IL-3-free conditions, by 2 hours, compared to DMSO-treated cells
[4] = system: p27^Kip1 in K562, U937, and MV7;11 cells; experiment: p27Kip1 location in cytoplasmic and nuclear fractions; type: cell-based, human; conditions: 72 hours, media containing 10% FCS; all three cell lines
Method: To examine p27^Kip1 location, K562, U937 or MV7;11 cells (1×10^5/mL) were incubated for 72 hours in complete media with DMSO or a disclosed Pim-1 and/or Pim-2 inhibitor. Cells were harvested, washed in PBS and cytoplasmic and nuclear fractions were prepared using the NE-PER Nuclear and Cytoplasmic Extraction kit (Pierce Biotechnology, Rockford, Ill.) according to the manufacturer's instructions, followed by SDS-PAGE and western blotting with anti-p27^Kip1 antibody, as described above. To measure Cdk2 activity, this protein was immunoprecipitated from K562, U937, or MV7;11 cells treated for 72 hours with Pim inhibitors, lysed in buffer (50 mM Tris-HCl, pH 8.0 containing 5 mM EDTA, 150 mM NaCl, 1% NP-40 and 1 mM phenylmethylsulfonyl fluoride) followed by the addition of Cdk2 antibody (2 μg). Samples were then rotated overnight at 4° C., and Cdk2 was immunoprecipitated by the addition of protein G beads (Pierce Biotechnology) with rotation at room temperature for 1 h. […] Reactions were allowed to proceed for 15 minutes at 37° C., and then analyzed by SDS-PAGE. ^32P-Phosphorylated histone H1 was visualized by autoradiography, and Cdk2 protein levels detected by Western blotting, as described above.

[5] = system: PC-3 prostate cancer cell; experiment: PC-3 cell viability with or without rapamycin; type: cell-based, human; conditions: administered alone, doses of 1 and 3 μM, after 36 hours
Excerpt: FIG. 5 depicts the results of these experiments.

[6] = system: PC3, DU145, LNCaP, U937, K582, and MV7;11 cell lines; experiment: Growth inhibition of cancer cell lines, 72 hours; type: cell-based, human; conditions: treatment for 72 hours in culture
22Rv1-Pim cells = experiment: Apoptosis (sub G1, FACS) in 22Rv1-Pim cells; conditions: 5 μM, 72 hours, serum-free conditions
DU145 and MV7;11 cells = experiment: Cell cycle distribution by FACS; conditions: 5 μM for 72 hours; DU145 in 2% serum, MV7;11 in 10% serum; compared to DMSO control
[7] = system: 4E-BP1 phosphorylation in FDCP1 cells
MV7;11 and FDCP1 cells = experiment: Combined treatment with rapamycin, growth inhibition; type: cell-based
PIM1 [8] = biological target: T1, PIM1; conditions: 5 μM, in vitro
[9] = system: phosphoBad in 22Rv1-Pim and DU145-Pim cells; experiment: PhosphoBad level by Western blotting in Pim-1 transfected prostate cancer cells; type: cell-based, human; conditions: 1 hour, serum-free conditions; total Bad constant
[10] = system: Cdk2 activity in K562 cells; conditions: K562 cells treated 72 hours, 10% FCS; histone H1 as substrate
PIM1 [11] = biological target: T1, PIM1; experiment: biochemical

T1 sequence (P11309 whole entry): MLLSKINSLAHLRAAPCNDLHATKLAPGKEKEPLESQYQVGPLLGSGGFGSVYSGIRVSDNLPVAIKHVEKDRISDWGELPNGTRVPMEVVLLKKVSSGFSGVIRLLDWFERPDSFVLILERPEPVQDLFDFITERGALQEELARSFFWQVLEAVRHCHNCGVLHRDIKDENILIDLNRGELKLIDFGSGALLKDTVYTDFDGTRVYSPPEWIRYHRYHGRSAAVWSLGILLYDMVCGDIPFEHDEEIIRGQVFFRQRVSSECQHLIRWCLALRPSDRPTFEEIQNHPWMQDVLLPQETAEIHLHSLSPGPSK

SMILES | IC50 (PIM1 [1]) | IC50 (PIM2) | IC50 [2] | other results
COc1ccc(/C=C2\SC(=O)NC2=O)cc1 [Compound D14] | 5100 ± 5000 nM | 300 ± 100 nM | 11000 ± 1000 nM | 
CCc1ccc(/C=C2\SC(=O)NC2=O)cc1 [Compound D13] | 600 ± 100 nM | 300 ± 100 nM |  | 
Cc1cccc(/C=C2\SC(=O)NC2=O)c1 [Compound D4] | 160 ± 40 nM | 100 ± 100 nM |  | 
O=C1NC(=O)/C(=C/c2cccc(OC(F)(F)C(F)F)c2)S1 [Compound D8] | 73 ± 53 nM | 2200 ± 1100 nM |  | 
O=C1NC(=O)/C(=C/c2ccc(C(F)(F)F)cc2)S1 [Compound D18] | 330 ± 130 nM | 80 ± 20 nM |  | 
O=C1NC(=O)N(Cc2ccccc2)/C1=C\c1ccc(Br)cc1 [Compound D30] | 58000 ± 7500 nM |  |  | 
O=C1NC(=O)/C(=C/c2ccc(OC(F)(F)F)cc2)S1 [Compound D19] |  | 500 ± 200 nM | 48000 ± 27000 nM | 
O=C1NC(=O)/C(=C/c2cccc(Br)c2)S1 [Compound D3] | 45000 ± 11000 nM | 90 ± 40 nM | 58000 ± 11000 nM | 
CN(C)c1ccc(/C=C2/C(=O)NC(=O)N2Cc2ccccc2)cc1 [Compound D31] | 78000 ± 7500 nM |  |  | 
COc1cccc(/C=C2/C(=O)NC(=O)N2Cc2ccccc2)c1 [Compound D32] |  |  | 80000 ± 15000 nM | 
Cc1ccc(/C=C2\SC(=O)NC2=O)cc1 [Compound D12] |  | 4400 ± 200 nM | > 100000 nM | 
O=C1NC(=O)/C(=C/c2cccc(Cl)c2)S1 [Compound D2] | 600 ± 510 nM | 400 ± 150 nM |  | 
O=C1NC(=O)/C(=C/c2cccc(F)c2)S1 [Compound D1] | 130 ± 60 nM | 400 ± 200 nM |  | 
CC(C)c1ccc(/C=C2\SC(=O)NC2=O)cc1 [Compound D17] | 40 ± 30 nM | > 100000 nM |  | 
CCOc1ccc(/C=C2\SC(=O)NC2=O)cc1 [Compound D15] | 170 ± 40 nM | 43000 ± 18000 nM | 65000 ± 17000 nM | 
O=C1NC(=O)/C(=C/c2cccc(C(F)(F)F)c2)S1 [Compound D5, 5-(3-trifluoromethylbenzylidene)thiazolidine-2,4-dione] |  | 100 ± 300 nM |  | phosphorylation of AMPK on threonine 172 (AMPK protein kinase): increase the phosphorylation; phosphoBad levels [3]: reduction in phosphoBad levels; amount of p27^Kip1 in nuclear fractions [4]: increase in the amount of p27^Kip1 in nuclear fractions; inhibition of cell viability [5]: 40%; growth inhibition of cancer cell lines [6]: growth inhibition of each cell line; sub G1 population (22Rv1-Pim cells): 38.1%; cell cycle arrest (DU145 and MV7;11 cells): significant G1 cell cycle arrest; concentration at which phosphorylation of 4E-BP1 was inhibited ([7]; 1 hour, absent rapamycin): 1.6 to 3.2 µM; effect on rapamycin inhibition of 4E-BP1 phosphorylation ([7]; with or without serum, combined with rapamycin): enhanced the ability of rapamycin to inhibit 4E-BP1 phosphorylation; growth inhibition, combined treatment with rapamycin (MV7;11 and FDCP1 cells): significant growth inhibition
COc1cccc(/C=C2\SC(=O)NC2=O)c1 [Compound D6] | 650 ± 50 nM |  | 73000 ± 13000 nM | 
O=C1NC(=O)/C(=C/c2cccc(OC(F)(F)F)c2)S1 [Compound D7] | 67 ± 61 nM | 900 ± 400 nM |  | 
CN(C)c1ccc(/C=C2\SC(=O)NC2=O)cc1 [Compound D20] | 6000 ± 1700 nM | 100 ± 100 nM | 66000 ± 13000 nM | 
O=C1NC(=O)/C(=C/c2ccc(Cl)cc2)S1 [Compound D10] | 40 ± 30 nM | 200 ± 100 nM |  | 
CCCOc1ccc(/C=C2\SC(=O)NC2=O)cc1 [Compound D16, 5-(4-propoxybenzylidene)thiazolidine-2,4-dione] | 150 ± 110 nM | 20 ± 10 nM |  | phosphorylation of AMPK on threonine 172 (AMPK protein kinase): increase the phosphorylation; amount of p27^Kip1 in nuclear fractions [4]: increase in the amount of p27^Kip1 in nuclear fractions; phosphorylation of p27^Kip1 by Pim-1 (PIM1 [8]): reduce phosphorylation; level of phosphoBad [9]: decreased in a dose-dependent manner; growth inhibition of cancer cell lines [6]: growth inhibition of each cell line; cell cycle arrest (DU145 and MV7;11 cells): significant G1 cell cycle arrest; decreased Cdk2 activity [10]: ~60%; growth inhibition, combined treatment with rapamycin (MV7;11 and FDCP1 cells; 72 hours, rapamycin 5 nM plus compound 5 μM, MV7;11 and FDCP1 cells): significant growth inhibition; IC50 (PIM1 [11]): 63 ± 11 nM
O=C1NC(=O)/C(=C/c2ccc(Br)cc2)S1 [Compound D11] | 28000 ± 23000 nM |  |  | 
O=C1S/C(=C\c2ccc(F)cc2)C(=O)N1Cc1ccccc1F [Compound D27] | 45000 ± 15000 nM |  | > 100000 nM | 
O=C1NC(=O)/C(=C/c2ccc(F)cc2)S1 [Compound D9] |  | 2300 ± 100 nM | 93000 ± 5000 nM | 
